{"source": "the NIST ThermoML archive (doi:10.1021/je800637t)", "key": {"[1]": {"experiment": "mn = molality of the nth substance listed, in mol/kg", "details": "100.8 kPa, Liquid, m2 = 0; for viscosity: Cone and plate viscometry; for electrical conductivity: Kyoto model CM-117 conductivity meter"}, "[2]": {"experiment": "refractive index (Na D-line) (dimensionless); mn = molality of the nth substance listed, in mol/kg", "details": "100.8 kPa, Liquid, Standard Abbe refractometry, m2 = 0"}}, "note": "± gives the expanded uncertainty stated by the source."}
{"smiles": "O", "note": "[water] + O=[N+]([O-])[O-].[K+]", "values": [{"measurement": "viscosity", "setting": "[1]; 298.15 K", "result": "0.891 ± 0.009", "unit": "mPa·s"}, {"measurement": "electrical conductivity", "setting": "[1]; 298.15 K", "result": "0.000125 ± 2e-06", "unit": "S/m"}, {"measurement": "viscosity", "setting": "[1]; 313.15 K", "result": "0.653 ± 0.007", "unit": "mPa·s"}, {"measurement": "electrical conductivity", "setting": "[1]; 313.15 K", "result": "0.000164 ± 2e-06", "unit": "S/m"}, {"measurement": "mass density", "setting": "[1]; 313.15 K, Vibrating tube method", "result": "992.15 ± 0.05", "unit": "kg/m3"}, {"measurement": "refractive index", "setting": "[2]; 298.15 K", "result": "1.33277 ± 0.0004"}, {"measurement": "refractive index", "setting": "[2]; 313.15 K", "result": "1.3306 ± 0.0004"}]}
